Key:
[1] = test system: TGF-beta-induced phosphorylation of Smad2 (Ser465/467) and Smad3 (Ser423/425) in Mv1-Lu cells; test: Inhibition of Smad2/3 phosphorylation in Mv1Lu cells (Example 10); format: cell-based, mink Mustela vison; settings: Neogale vison, TGF-beta 1 5 ng/ml, phospho-Smad2/3 ELISA, read-out: TβR activity (Example 10)
Procedure: This assay was used to determine the inhibitory potency of compounds on TGF-beta-induced phosphorylation of Smad2 (Ser465/467) and Smad3 (Ser423/425). Mv1-Lu cells (lung epithelial cell line from mink Mustela vison; ATCC number: CCL-64) were seeded in DMEM (Invitrogen) supplemented with 10% fetal bovine serum (Pan Biotech) at a defined cell density in 24-well or 96-well plates (24-well plate: 1.5×10^5 cells per well; 96-well plate: 4×10^4 cells per well). Cell cultures were incubated in DMEM at 37° C. and 10% CO2. On the next day, the medium was replaced and cells were serum-starved for 16-20 hours. The following day, serial dilutions of compounds were added to the wells, pre-incubated for 1.5 hrs before recombinant TGF-beta 1 ligand (final concentration 5 ng/ml; R&D systems) was added. After one hour of ligand stimulation, lysates were prepared and analyzed using an enzyme-linked immunosorbent assay kit (PathScan Phospho-Smad2 Kit, Cell Signaling Technologies). The ELISA detects phosphorylated Smad2 as well as phosphorylated Smad3 with the phospho-specific antibody. TGF-beta stimulated cells and unstimulated cells served as positive and negative controls (100% and background control). The concentration of the vehicle DMSO was kept constant at 0.2% (v/v) in all wells. Dose-response relationships were fitted using curve fitting algorithms of the RS1 statistics software package (Brooks Automation Inc. RS/1—Statistical Tools Handbook. Release 6.2) to determine the concentration at which half-maximal inhibition (IC50) of Smad2/3 phosphorylation was achieved.

GST-ALK5 = biological target: T1, GST-ALK5 (Homo sapiens, UniProt P36897); test: In-vitro (enzyme) kinase flashplate assay, TGF-beta receptor kinase (Example 9); format: biochemical; settings: GST-ALK5, GST-SMAD2 substrate, 3 mM ATP, 30° C. 45 min; read-out: TβR activity (Example 9)
T1 sequence (P36897 34-503): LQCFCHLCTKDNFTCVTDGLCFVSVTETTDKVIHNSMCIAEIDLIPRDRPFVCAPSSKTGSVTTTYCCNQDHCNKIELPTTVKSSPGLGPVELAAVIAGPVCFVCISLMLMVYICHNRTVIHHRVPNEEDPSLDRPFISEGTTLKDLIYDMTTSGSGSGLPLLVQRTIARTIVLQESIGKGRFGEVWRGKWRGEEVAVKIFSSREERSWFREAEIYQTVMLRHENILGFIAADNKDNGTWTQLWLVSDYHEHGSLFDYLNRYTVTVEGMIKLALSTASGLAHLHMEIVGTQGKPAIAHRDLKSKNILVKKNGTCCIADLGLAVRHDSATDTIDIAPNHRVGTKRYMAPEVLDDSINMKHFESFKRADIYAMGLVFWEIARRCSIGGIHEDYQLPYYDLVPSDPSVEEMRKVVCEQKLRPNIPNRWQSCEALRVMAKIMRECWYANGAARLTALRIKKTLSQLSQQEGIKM
Procedure: The kinase assay was carried out as 384-well flashplate assay. 31.2 nM of GST-ALK5, 439 nM of GST-SMAD2 and 3 mM of ATP (with 0.3 μCi of ^33P-ATP/well) were incubated in a total volume of 35 μl (20 mM of HEPES, 10 mM of MgCl2, 5 mM of MnCl2, 1 mM of DTT, 0.1% of BSA, pH 7.4) without or with test substance (5-10 concentrations) at 30° C. for 45 min. The reaction was stopped using 25 μl of 200 mM EDTA solution, filtered with suction at room temperature after 30 min, and the wells were washed with 3 times 100 μl of 0.9% NaCl solution. Radioactivity was measured in the TopCount. The IC50 values were calculated using RS 1.

Structure (SMILES) | IC50 [1] | IC50 (GST-ALK5)
CN1CCC(n2cc(-c3cncc(-c4cc(-c5ccccc5F)nc5nccnc45)c3)cn2)CC1 [Compound 9, 6-(2-Fluorophenyl)-8-{5-[1-(1-methyl-piperidin-4-yl)-1H-pyrazol-4-yl]-pyridin-3-yl}-pyrido[2,3-b] pyrazine] | < 1000 nM | < 1000 nM
Nc1nccc2c(-c3cc(-c4ccccc4F)nc4nccnc34)cccc12 [Compound 4, 5-[6-(2-Fluorophenyl)-pyrido[2,3-b]pyrazin-8-yl]-isoquinolin-1-ylamine] | < 1000 nM | < 1000 nM
Nc1ncc(-c2cc(-c3ccccc3F)nc3nccnc23)c2ccncc12 [Compound 6, 4-[6-(2-Fluorophenyl)-pyrido[2,3-b]pyrazin-8-yl]-[2,7]naphthyridin-1-ylamine] | < 1000 nM | < 1000 nM
Nc1nccc2c(-c3cc(-c4cc(Cl)ccc4F)nc4nccnc34)nccc12 [Compound 5, 5-[6-(5-Chloro-2-fluorophenyl)-pyrido[2,3-b]pyrazin-8-yl]-[2,6]naphthyridin-1-ylamine] | < 1000 nM | 
Fc1ccccc1-c1cc(Nc2ccncc2)c2nccnc2n1 [Compound 1, [6-(2-Fluorophenyl)-pyrido[2,3-b]pyrazin-8-yl]-pyridin-4-yl-amine] | < 1000 nM | < 1000 nM
Cn1cc(-c2cncc(-c3cc(-c4ccccc4F)nc4nccnc34)c2)cn1 [Compound 10, 6-(2-Fluorophenyl)-8-[5-(1-methyl-1H-pyrazol-4-yl)-pyridin-3-yl]-pyrido[2,3-b] pyrazine] | < 1000 nM | < 1000 nM
Nc1nccc2c(-c3cc(-c4cc(F)ccc4F)nc4nccnc34)nccc12 [Compound 8, 5-[6-(2,5-Difluoro-phenyl)pyrido[2,3-b]pyrazin-8-yl]-2,6-naphthyridin-1-amine] | < 1000 nM | 
OCCn1cc(-c2cncc(-c3cc(-c4ccccc4F)nc4nccnc34)c2)cn1 [Compound 12, 2-[4-[5-[6-(2-Fluorophenyl)pyrido [2,3-b]pyrazin-8-yl]-3-pyridyl]pyrazol-1-yl]ethanol] | < 1000 nM | < 1000 nM
Fc1ccc(Cl)cc1-c1cc(Nc2ccnc3ccoc23)c2nccnc2n1 [Compound 14, N-[6-(5-Chloro-2-fluorophenyl)pyrido [2,3-b]pyrazin-8-yl]furo[3,2-b]pyridin-7-amine] | < 1000 nM | < 1000 nM
Nc1nccc2c(-c3cc(-c4ccccc4F)nc4nccnc34)nccc12 [Compound 3, 5-[6-(2-Fluorophenyl)-pyrido[2,3-b]pyrazin-8-yl]-[2,6]naphthyridin-1-ylamine] | < 1000 nM | < 1000 nM
Fc1ccc(Cl)cc1-c1cc(Nc2ccncc2)c2nccnc2n1 [Compound 2, [6-(5-Chloro-2-fluoro-phenyl)-pyrido[2,3-b]pyrazin-8-yl]-pyridin-4-yl-amine] | < 1000 nM | < 1000 nM

From patent US9051318B2, “Pyrido [2, 3-B] pyrazine compounds and their therapeutical uses such as for inhibiting ATP consuming proteins and treating diseases associated therewith” (Merck Patent GmbH, priority 2011, dated 2015)
